Assay results as given in patent US11413278B2, “Compounds and methods for promoting stress resistance” (priority 2015, dated 2022).
pEC50: −log10 of the molar value. Where two headings read alike, the source gives them in different places.

Experiments:
WI-38 cells [1] = test: MMS resistance assay; type: cell-based, human; conditions: for Triple resistant: H2O2, CdCl2 and MMS; for fold induction at 10 µM: Homo sapiens, 12 h, normalized ATP measurement; for Assay 3: MMS-resistant / Assay 5: Triple resistant: YES/NO; for Assay 3: MMS-resistant: * indicates partial; for Assay 5: Triple resistant: H2O2, cadmium and MMS
Outline: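 WI-38 cells were given compounds at five final concentrations (0.25–20 μM) in triplicate, followed by cadmium or MMS for 12 h. For MMS, medium was switched from OptiMEM+10% FBS to serum-free DMEM+2% BSA when compounds were added, 24 h before stressor. Two independent assays were run, analysed by global variance t-test.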

C. elegans = C. elegans lifespan assays (liquid and plate); type: in vivo, Caenorhabditis elegans; conditions: for ILS at 60 µM / ILS at 66 µM: Caenorhabditis elegans; for O = Life span- extending scores in worms: score scale 0 to 2, 4 to 6 independent trials; for M = Lifespan-extending scores in worms: summary score
human PARP1 = target: T1, human PARP1 (Homo sapiens, UniProt P09874); test: PARP inhibitor assay (HT Fluorescent Homogeneous PARP Inhibition Assay Kit); type: biochemical; conditions: for L = PARP inhibition: score
T1 construct: purchased Trevigen
T1 sequence (P09874 whole entry): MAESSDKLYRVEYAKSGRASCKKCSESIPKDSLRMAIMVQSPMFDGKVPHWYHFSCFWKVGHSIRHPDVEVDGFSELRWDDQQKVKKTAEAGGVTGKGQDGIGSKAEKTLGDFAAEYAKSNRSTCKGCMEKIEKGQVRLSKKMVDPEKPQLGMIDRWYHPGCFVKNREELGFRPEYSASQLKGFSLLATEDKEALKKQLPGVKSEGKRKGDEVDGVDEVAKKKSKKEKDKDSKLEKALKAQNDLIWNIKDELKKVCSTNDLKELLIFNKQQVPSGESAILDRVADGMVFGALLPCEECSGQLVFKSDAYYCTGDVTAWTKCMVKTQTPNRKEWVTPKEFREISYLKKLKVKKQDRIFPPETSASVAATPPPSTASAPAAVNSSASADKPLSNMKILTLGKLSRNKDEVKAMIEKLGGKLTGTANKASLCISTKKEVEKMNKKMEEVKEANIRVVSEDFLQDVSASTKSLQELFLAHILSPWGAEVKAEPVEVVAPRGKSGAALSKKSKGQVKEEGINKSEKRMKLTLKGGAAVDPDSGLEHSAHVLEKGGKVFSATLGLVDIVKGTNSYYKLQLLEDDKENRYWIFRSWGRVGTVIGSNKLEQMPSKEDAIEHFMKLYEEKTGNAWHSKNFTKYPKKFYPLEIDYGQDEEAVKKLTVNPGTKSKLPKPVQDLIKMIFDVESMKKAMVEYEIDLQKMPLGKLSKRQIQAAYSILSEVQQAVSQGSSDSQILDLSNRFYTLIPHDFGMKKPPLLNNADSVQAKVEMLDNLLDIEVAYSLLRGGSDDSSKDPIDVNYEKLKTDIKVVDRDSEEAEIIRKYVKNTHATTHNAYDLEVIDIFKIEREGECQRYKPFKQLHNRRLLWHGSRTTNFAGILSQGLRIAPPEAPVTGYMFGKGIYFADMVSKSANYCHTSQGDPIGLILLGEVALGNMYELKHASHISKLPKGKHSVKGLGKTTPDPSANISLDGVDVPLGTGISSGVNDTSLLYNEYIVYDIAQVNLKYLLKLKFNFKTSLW
Outline: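 Human PARP1 with NAD and activated DNA, compounds at 10 μM final, 30 min at room temperature in dark. Resazurin/diaphorase cycling mix then added for 1 hr in dark before stop buffer; fluorescent homogeneous kit read-out.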

WI-38 cells [2] = conditions: for No H2O2 stress treatment, at 10 uM (fold change): normalized ATP measurement; for Assay 1: H2O2-resistant: YES/NO, if NO, possibly due to repeated freezing/thawing of stocks
[3] = system: PC12 cells expressing poly(Q)103-Htt-EGFP; test: Poly(Q) toxicity & viability analysis (cellular model of Huntington's disease); type: cell-based, rat; conditions: for M = Huntington's poly-Q toxicity attenuation: score; for K = Huntington's poly-Q toxicity attenuation: summary score
Outline: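 PC12 cells stably carrying inducible poly(Q)103-Htt-EGFP, whose induced expression causes aggregation and toxicity. Viability read 48 hrs later as ATP content by CellTiter-Glo.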

[4] = system: phosphorylated γH2A.X and TP53BP1; test: DNA damage marker analysis (immuno-staining); conditions: for activity at 10 µM: Homo sapiens, WI-38, 24 h; for P = Potential DNA-damaging / R = Potential DNA damaging: human, 24 h
Outline: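 WI-38 cells were cultured 24 h, then treated with compounds for 24 h; H2O2 (700 μM, 3 h) and doxorubicin (300 nM, 24 h) served as DNA-damage controls. After fixation, cells were immunostained for phospho-γH2A.X (Ser-139) and phospho-TP53BP1 (Ser-1778), counterstained with DAPI, and imaged by automated high-content microscopy.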

[5] = Exp. 1, WI-38 cells, read-out: Exp. 1, under MMS stress treatment, at 10 uM (fold change)
[6] = Exp. 2, WI-38 cells, read-out: Exp. 2, under MMS stress treatment, at 10 uM (fold change)
[7] = score in summary of 38 core set hits
[8] = in liquid, wild type, with FuDR, 1.0 × 10^9 bacteria/ml, read-out: relative change of mean lifespan vs control, Trial 1
[9] = in liquid, wild type, with FuDR, 2.5 × 10^9 bacteria/ml, read-out: relative change of mean lifespan vs control, Trial 2
[10] = on plate, CF512 temperature-sensitive sterile animals, without FuDR, 2.0 × 10^10 bacteria/ml, read-out: relative change of mean lifespan vs control, Trial 3
[11] = Assay 2(z), 1.0 × 10^9 bacteria/ml, wild type + FuDR (2012 July), read-out: Lifespan assay in liquid
[12] = Assay 3(aa), 2.5 × 10^9 bacteria/ml, wild type + FuDR, read-out: Lifespan assay in liquid
[13] = Assay 4(ab), 2.0 × 10^10 bacteria/ml, CF512 worms, no FuDR, read-out: Lifespan assay on plates
[14] = WI-38 cells, 10 μM, (*) = compromised ability to protect cells from H2O2, could be due to stability issue
[15] = asterisks indicate the loss of the ability to protect cells from H2O2 over time
[16] = derived from dose response curves, 0.6-20 uM, H2O2-resistance of WI-38 cells
[17] = read-out: Est. ED50, dose response 0.6-20 μM, H2O2-resistance
[18] = read-out: Experiment 1, H2A.X-P DNA damage foci staining (no H2O2 stress treatment), at 10 uM
[19] = read-out: Experiment 2, H2A.X-P DNA damage foci staining (no H2O2 stress treatment), at 10 uM
[20] = read-out: Experiment 2, H2A.X-P DNA damage foci staining (under H2O2 stress treatment), at 10 uM
[21] = read-out: Experiment 2, TP53BP1-P DNA damage foci staining (no H2O2 stress treatment), at 10 uM
[22] = read-out: Experiment 2, TP53BP1-P DNA damage foci staining (under H2O2 stress treatment), at 10 uM

Structure (SMILES) | fold induction at 10 µM (WI-38 cells [1]; [5]) | fold induction at 10 µM (WI-38 cells [1]; [6]) | B = MMS resistant (WI-38 cells [1]; [7]) | B = MMS resistant (WI-38 cells [1]; summary score) | D = Triple resistant (WI-38 cells [1]; summary score) | ILS at 60 µM (C. elegans; [8]) | ILS at 60 µM (C. elegans; [9]) | ILS at 60 µM (C. elegans; [10]) | ILS at 66 µM (C. elegans; [11]) | ILS at 66 µM (C. elegans; [12]) | ILS at 66 µM (C. elegans; [13]) | O = Life span- extending scores in worms (C. elegans) | M = Lifespan-extending scores in worms (C. elegans) | L = PARP inhibition (human PARP1) | H2O2-resistant (WI-38 cells [2]; [14]) | No H2O2 stress treatment, at 10 uM (fold change) (WI-38 cells [2]; WI-38 cells) | H2O2-resistant (WI-38 cells [2]; [15]) | pEC50 (WI-38 cells [2]; [16]) | pEC50 (WI-38 cells [2]; [17]) | M = Huntington's poly-Q toxicity attenuation [3] | other results
Cc1cc(N)n(-c2ccccc2C(=O)O)n1 [Gr-6A] | 2.2 | 7.2 | 1 | 1 | 2 | 5.5% | 6.8% | 16.9% | 5.5% | 6.8% | 16.9% | 0 | 0 | 1 | YES | 1.10 fold change | YES | 4.86 | 4.39 | 0 | MMS-resistant (WI-38 cells [1]): YES; Multiplex resistance to cadmium, MMS and H2O2 (WI-38 cells [1]; 0.25 μM to 20 μM, repurchased molecules): reproducibly conferred multiplex resistance; Triple resistant (WI-38 cells [1]): YES; MMS-resistant (WI-38 cells [1]; WI-38 cells, 10 μM): YES; Triple resistant (WI-38 cells [1]; WI-38 cells, 10 μM): YES; Assay 3: MMS-resistant (WI-38 cells [1]): YES; Assay 5: Triple resistant (WI-38 cells [1]): YES; ILS at 60 µM (C. elegans; on plate, CF512 temperature-sensitive sterile animals, without FuDR, 1.0 × 10^11 bacteria/ml, read-out: relative change of mean lifespan vs control, Trial 4): -2.7%; ILS at 66 µM (C. elegans; Assay 5(ac), 1.0 × 10^11 bacteria/ml, CF512 worms, no FuDR, read-out: Lifespan assay on plates): -2.7%; Inhibition of PARP1 (human PARP1; 10 μM, in vitro): inhibitors of PARP1; Assay 1: H2O2-resistant (WI-38 cells [2]): YES; K = Huntington's poly-Q toxicity attenuation [3]: 0; activity at 10 µM [4, 18]: 117%; activity at 10 µM [4, 19]: 59.9%; activity at 10 µM [4, 20]: 200%; activity at 10 µM [4, 21]: 138%; P = Potential DNA-damaging [4]: 0; R = Potential DNA damaging [4]: 0
O=C(Nc1cccc(Cl)c1)c1ccc([N+](=O)[O-])o1 [Gr-1D] | 1.16 | 2.31 | 0 | 1 | 2 | 18.2% | -0.5% | 10.5% | 18.2% | -0.5% | 10.5% | 1 (1 for lifespan extension observed in 2 trials) | 1 (1 for lifespan extension observed in 2 trials) | 0 | YES | 0.91 fold change | YES | 5.34 | 5.57 | 0 | Assay 3: MMS-resistant (WI-38 cells [1]): YES; Assay 5: Triple resistant (WI-38 cells [1]): YES; Assay 1: H2O2-resistant (WI-38 cells [2]): YES; K = Huntington's poly-Q toxicity attenuation [3]: 0; activity at 10 µM [4, 18]: 232%; activity at 10 µM [4, 19]: 353%; activity at 10 µM [4, 20]: 164%; activity at 10 µM [4, 21]: 353%; activity at 10 µM [4, 22]: 554%; P = Potential DNA-damaging [4]: 1; R = Potential DNA damaging [4]: 1
COc1ccc(/C=C2\SC(=N)N(c3nccs3)C2=O)cc1 [O21] | 0.74 | 0.94 | 0 | 0 | 0 | 7.9% | -0.5% | 12.2% | 7.9% | -0.5% | 12.2% | 0 | 0 | 0 | YES | 0.92 fold change | YES | 4.74 | 4.74 | 0 | K = Huntington's poly-Q toxicity attenuation [3]: 0; activity at 10 µM [4, 18]: 161%; activity at 10 µM [4, 19]: 216%; activity at 10 µM [4, 20]: 127%; activity at 10 µM [4, 21]: 196%; activity at 10 µM [4, 22]: 620%; P = Potential DNA-damaging [4]: 1; R = Potential DNA damaging [4]: 1
